Legend:
Type in all cases: cell-based
[1] = target: T1, human recombinant TRPV1 channel (Homo sapiens, UniProt Q8NER1); experiment: Elevation of intracellular Ca2+ in HEK-293 cells stably transfected with TRPV1; settings: at 10 μM
T1 construct: expressed in transfected cells; host or cells: HEK-293
Method: Assays of TRP-mediated elevation of intracellular [Ca^2+] were performed as previously described. In the current study we have used wild-type HEK293 cells, cells stably expressing rat TRPA1 or human TRPV1 or rat TRPM8. HEK-293 cells stably over-expressing recombinant rat TRPA1, rat TRPM8 or human TRPV1 were selected by G-418 (Geneticin; 600 μg·mL^−1), grown on 100 mm diameter Petri dishes as monolayers in minimum essential medium supplemented with non-essential amino acids, 10% fetal bovine serum and 2 mM glutamine, and maintained under 5% CO2 at 37 °C. […] After loading, cells were washed twice in Tyrode’s buffer (145 mM NaCl, 2.5 mM KCl, 1.5 mM CaCl2, 1.2 mM MgCl2, 10 mM D-glucose and 10 mM HEPES, pH 7.4), re-suspended in the same buffer, and transferred to the quartz cuvette of the spectrofluorimeter (λex = 488 nm; λem = 516 nm) (Perkin-Elmer LS50B equipped with PTP-1 Fluorescence Peltier System; Perkin-Elmer Life and Analytical Sciences, Waltham, MA, USA) under continuous stirring. […] Experiments were carried out at 22 °C by measuring cell fluorescence before and after the addition of various concentrations of test compounds. […] The potency of test compounds (EC50 values) was determined as the concentration of test substances required to produce half-maximal increases in [Ca^2+]i. […] Data are expressed as the concentration exerting a half-maximal inhibition of agonist effect (IC50). […]

rat TRPM8 channel = target: T2, rat TRPM8 channel (Rattus norvegicus, UniProt Q8R455); experiment: Inhibition of icilin-induced [Ca2+]i elevation in TRPM8-HEK-293 cells; settings: 5-min preincubation, against icilin 0.25 μM
T2 construct: expressed in transfected cells; host or cells: HEK-293
Method: (§1) Assays of TRP-mediated elevation of intracellular [Ca^2+] were performed as previously described. In the current study we have used wild-type HEK293 cells, cells stably expressing rat TRPA1 or human TRPV1 or rat TRPM8. HEK-293 cells stably over-expressing recombinant rat TRPA1, rat TRPM8 or human TRPV1 were selected by G-418 (Geneticin; 600 μg·mL^−1), grown on 100 mm diameter Petri dishes as monolayers in minimum essential medium supplemented with non-essential amino acids, 10% fetal bovine serum and 2 mM glutamine, and maintained under 5% CO2 at 37 °C. Stable expression of each channel was confirmed by real time quantitative PCR (not shown). On the day of the experiment, the cells were loaded for 1 h at 25 °C with the cytoplasmic calcium indicator Fluo-4AM (Invitrogen Carlsbad, CA, USA) 4 μM in DMSO containing 0.02% Pluronic F-127 (Invitrogen, Carlsbad, CA, USA). After loading, cells were washed twice in Tyrode’s buffer (145 mM NaCl, 2.5 mM KCl, 1.5 mM CaCl2, 1.2 mM MgCl2, 10 mM D-glucose and 10 mM HEPES, pH 7.4), re-suspended in the same buffer, and transferred to the quartz cuvette of the spectrofluorimeter (λex = 488 nm; λem = 516 nm) (Perkin-Elmer LS50B equipped with PTP-1 Fluorescence Peltier System; Perkin-Elmer Life and Analytical Sciences, Waltham, MA, USA) under continuous stirring. About 100,000 cells were used for each data point. Experiments were carried out at 22 °C by measuring cell fluorescence before and after the addition of various concentrations of test compounds. The values of the effect on [Ca^2+]i in wild-type (i.e., not transfected with any construct) HEK-293 cells were taken as baselines and subtracted from the values obtained from transfected cells. The potency of test compounds (EC50 values) was determined as the concentration of test substances required to produce half-maximal increases in [Ca^2+]i. The efficacy of the agonists on TRPA1 is expressed as a percentage of the effect obtained with 100 μM allylisothiocyanate (AITC). Antagonist/desensitizing behaviour was evaluated against icilin (0.25 μM) for TRPM8 and AITC (100 μM) for TRPA1 by adding the compounds in the quartz cuvette 5 min before stimulation of cells with agonists. Data are expressed as the concentration exerting a half-maximal inhibition of agonist effect (IC50). All determinations were at least performed in triplicate. Dose-response curves were fitted by a sigmoidal regression with variable slope. Curve fitting and parameter estimation were performed with GraphPad Prism (GraphPad Software Inc., San Diego, CA, USA).

rat TRPA1 channel [2] = target: T3, rat TRPA1 channel (Rattus norvegicus, UniProt Q6RI86); experiment: TRPA1 activation, fluorometric intracellular [Ca2+]i in TRPA1-HEK293 cells; settings: for Efficacy TRPA1 (% AITC 100 μM) / EC50: rat TRPA1-HEK293 cells; for EC50: read-out: Potency EC50 TRPA1
T3 construct: expressed in transfected cells; host or cells: HEK-293
Method: as §1, with “Stable expression of each channel was confirmed by real time quantitative PCR (not shown).” left out

rat TRPA1 channel [3] = target: T3, rat TRPA1 channel; experiment: TRPA1 desensitization/inhibition of AITC-induced [Ca2+]i elevation in TRPA1-HEK-293 cells; settings: 5-min preincubation, against AITC 100 μM
Method: as §1, with “Stable expression of each channel was confirmed by real time quantitative PCR (not shown).” left out

T3 sequence (Q6RI86 whole entry): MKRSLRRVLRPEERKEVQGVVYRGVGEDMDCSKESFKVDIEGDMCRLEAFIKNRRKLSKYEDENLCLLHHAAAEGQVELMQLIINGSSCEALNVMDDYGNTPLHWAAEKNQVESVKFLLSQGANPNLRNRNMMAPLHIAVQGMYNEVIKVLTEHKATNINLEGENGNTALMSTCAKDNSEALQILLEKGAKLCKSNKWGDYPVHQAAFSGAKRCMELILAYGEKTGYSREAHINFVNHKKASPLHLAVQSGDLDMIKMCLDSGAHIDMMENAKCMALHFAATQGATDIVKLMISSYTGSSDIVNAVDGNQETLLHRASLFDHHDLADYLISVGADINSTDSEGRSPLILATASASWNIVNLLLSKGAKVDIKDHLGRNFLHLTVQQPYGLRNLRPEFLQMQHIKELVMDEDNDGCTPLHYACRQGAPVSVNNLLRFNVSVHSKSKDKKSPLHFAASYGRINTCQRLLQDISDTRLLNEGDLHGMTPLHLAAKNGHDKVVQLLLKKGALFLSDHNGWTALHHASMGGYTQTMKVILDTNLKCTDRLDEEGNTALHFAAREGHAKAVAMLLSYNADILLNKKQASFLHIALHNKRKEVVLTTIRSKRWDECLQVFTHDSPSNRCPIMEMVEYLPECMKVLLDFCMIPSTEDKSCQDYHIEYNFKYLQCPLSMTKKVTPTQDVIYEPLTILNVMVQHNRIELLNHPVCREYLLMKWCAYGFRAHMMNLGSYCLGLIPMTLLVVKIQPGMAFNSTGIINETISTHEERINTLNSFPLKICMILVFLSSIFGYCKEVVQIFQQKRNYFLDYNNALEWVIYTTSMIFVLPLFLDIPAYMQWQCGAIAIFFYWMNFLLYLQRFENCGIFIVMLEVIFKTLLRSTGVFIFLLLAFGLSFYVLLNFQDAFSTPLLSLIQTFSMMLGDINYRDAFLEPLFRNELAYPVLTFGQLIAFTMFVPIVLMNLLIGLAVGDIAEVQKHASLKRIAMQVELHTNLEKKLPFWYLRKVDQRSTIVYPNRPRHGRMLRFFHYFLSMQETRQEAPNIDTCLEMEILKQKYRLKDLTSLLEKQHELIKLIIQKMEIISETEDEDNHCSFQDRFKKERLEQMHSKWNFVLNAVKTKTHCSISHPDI
T2 sequence (Q8R455 whole entry): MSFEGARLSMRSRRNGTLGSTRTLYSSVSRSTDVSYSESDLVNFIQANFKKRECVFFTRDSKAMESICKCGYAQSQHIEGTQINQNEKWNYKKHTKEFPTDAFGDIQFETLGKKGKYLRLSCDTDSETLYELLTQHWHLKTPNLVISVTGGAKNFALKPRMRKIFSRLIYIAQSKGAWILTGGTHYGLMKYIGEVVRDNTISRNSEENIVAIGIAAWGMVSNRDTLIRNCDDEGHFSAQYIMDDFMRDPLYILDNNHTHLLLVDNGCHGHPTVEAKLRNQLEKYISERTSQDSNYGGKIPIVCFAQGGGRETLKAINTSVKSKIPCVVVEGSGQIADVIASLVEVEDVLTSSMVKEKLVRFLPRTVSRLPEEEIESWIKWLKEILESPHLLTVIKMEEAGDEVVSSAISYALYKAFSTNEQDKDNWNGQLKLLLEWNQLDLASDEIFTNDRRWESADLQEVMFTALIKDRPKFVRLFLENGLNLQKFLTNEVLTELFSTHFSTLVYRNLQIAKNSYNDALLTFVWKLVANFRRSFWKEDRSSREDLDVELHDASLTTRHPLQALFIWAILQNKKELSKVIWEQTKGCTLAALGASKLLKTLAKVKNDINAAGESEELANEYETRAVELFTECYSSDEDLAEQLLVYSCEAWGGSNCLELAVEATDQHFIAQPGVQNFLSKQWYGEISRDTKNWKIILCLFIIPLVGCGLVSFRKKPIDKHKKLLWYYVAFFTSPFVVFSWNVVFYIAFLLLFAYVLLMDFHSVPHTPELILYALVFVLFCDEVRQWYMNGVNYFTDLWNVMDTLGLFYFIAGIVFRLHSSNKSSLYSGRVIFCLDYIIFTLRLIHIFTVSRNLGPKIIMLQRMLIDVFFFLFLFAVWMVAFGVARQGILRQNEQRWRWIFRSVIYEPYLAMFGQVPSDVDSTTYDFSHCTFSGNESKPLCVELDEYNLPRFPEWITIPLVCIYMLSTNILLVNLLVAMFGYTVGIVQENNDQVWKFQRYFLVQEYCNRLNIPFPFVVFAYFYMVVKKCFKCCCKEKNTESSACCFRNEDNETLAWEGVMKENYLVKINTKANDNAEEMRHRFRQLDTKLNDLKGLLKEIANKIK
T1 sequence (Q8NER1 whole entry): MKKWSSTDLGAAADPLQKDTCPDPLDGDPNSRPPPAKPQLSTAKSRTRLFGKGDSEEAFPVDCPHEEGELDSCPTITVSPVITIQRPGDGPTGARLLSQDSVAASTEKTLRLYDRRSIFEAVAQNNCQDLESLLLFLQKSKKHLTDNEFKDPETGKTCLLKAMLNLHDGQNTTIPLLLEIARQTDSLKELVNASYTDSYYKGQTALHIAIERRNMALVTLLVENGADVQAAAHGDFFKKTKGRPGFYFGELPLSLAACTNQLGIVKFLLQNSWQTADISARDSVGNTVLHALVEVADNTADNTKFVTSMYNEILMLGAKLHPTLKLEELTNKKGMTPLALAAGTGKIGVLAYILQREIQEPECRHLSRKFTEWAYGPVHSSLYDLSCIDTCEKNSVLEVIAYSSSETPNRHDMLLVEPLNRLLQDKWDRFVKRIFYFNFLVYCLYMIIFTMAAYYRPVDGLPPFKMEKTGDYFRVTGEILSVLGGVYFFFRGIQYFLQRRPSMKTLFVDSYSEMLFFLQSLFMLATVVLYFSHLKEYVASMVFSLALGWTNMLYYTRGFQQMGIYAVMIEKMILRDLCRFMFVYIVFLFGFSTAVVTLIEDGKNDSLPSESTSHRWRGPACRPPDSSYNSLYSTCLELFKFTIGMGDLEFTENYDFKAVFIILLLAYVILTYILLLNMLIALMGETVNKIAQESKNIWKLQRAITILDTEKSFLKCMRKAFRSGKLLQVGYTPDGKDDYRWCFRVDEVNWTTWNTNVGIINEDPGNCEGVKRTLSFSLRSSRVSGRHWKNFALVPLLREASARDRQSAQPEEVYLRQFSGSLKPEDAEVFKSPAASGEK

Efficacy TRPV1 (% of 4 μM ionomycin) [1] | IC50 (rat TRPM8 channel) | Efficacy TRPA1 (% AITC 100 μM) (rat TRPA1 channel [2]) | EC50 (rat TRPA1 channel [2]) | Reduction of efficacy at TRPA1 versus parent compound 1 (rat TRPA1 channel [2]) | SMILES | IC50 (rat TRPA1 channel [3])
78.6 ± 2.4 % of 4 μM ionomycin |  |  |  |  | COc1cc(CNC(=O)CCCC/C=C/C(C)C)ccc1O [capsaicin] | 
 | 44.6 ± 10.1 µM |  |  |  | CC(=O)N[C@H](C)[C@H](C/C=C\C/C=C\C/C=C\C/C=C\C/C=C\C/C=C\CCCCCC[C@H](OC(C)=O)[C@@H](C)NC(C)=O)OC(C)=O [Compound 2] | 
 | 29 ± 0.6 µM | 100.0 ± 9.7 % AITC 100 μM | 9.7 ± 3.3 µM |  | CC(=O)N[C@H](C)[C@H](CCCCCCCCCCCCCCCCCCCCCCCC[C@H](OC(C)=O)[C@@H](C)NC(C)=O)OC(C)=O [Compound 6] | 12.7 ± 0.8 µM
 | 65.7 ± 8.6 µM |  |  |  | CC(=O)N[C@H](C)[C@H](C/C=C\CC(/C=C/C=C\C/C=C\C/C=C\C/C=C\CCCCCC[C@H](OC(C)=O)[C@@H](C)NC(C)=O)OC(C)=O)OC(C)=O (some centres unmarked) [Compound 4] | 
 | 6.4 ± 1 µM | 103.3 ± 10.6 % AITC 100 μM | 5.9 ± 1.9 µM |  | C[C@@H](N)[C@@H](O)C/C=C\CC(O)/C=C/C=C\C/C=C\C/C=C\C/C=C\CCCCCC[C@H](O)[C@@H](C)N (some centres unmarked) [Leucettamol B (3), leucettamol B] | 4.7 ± 0.9 µM
 | 6.5 ± 0.3 µM | 101.9 ± 12.4 % AITC 100 μM | 3.7 ± 1.7 µM |  | C[C@@H](N)[C@@H](O)C/C=C\C/C=C\C/C=C\C/C=C\C/C=C\C/C=C\CCCCCC[C@H](O)[C@@H](C)N [Leucettamol A (1), leucettamol A] | 4.7 ± 0.2 µM
 | 6.5 ± 0.3 µM | 69.2 ± 0.1 % AITC 100 μM | 2.6 ± 0.1 µM | 30% | C[C@@H](N)[C@@H](O)CCCCCCCCCCCCCCCCCCCCCCCC[C@H](O)[C@@H](C)N [Compound 5] | 6.5 ± 0.4 µM

Reference: paper PMC3509527, “Leucettamols, Bifunctionalized Marine Sphingoids, Act as Modulators of TRPA1 and TRPM8 Channels” (Marine Drugs, 2012)
